The text below walks through data of US9951065B2 (Gilead Sciences, Inc., priority 2015, dated 2018).

What is called EC50 is the midpoint of the concentration-response curve. Read a high EC50 as lower potency in that assay.

T1 sequence (P14902 whole entry): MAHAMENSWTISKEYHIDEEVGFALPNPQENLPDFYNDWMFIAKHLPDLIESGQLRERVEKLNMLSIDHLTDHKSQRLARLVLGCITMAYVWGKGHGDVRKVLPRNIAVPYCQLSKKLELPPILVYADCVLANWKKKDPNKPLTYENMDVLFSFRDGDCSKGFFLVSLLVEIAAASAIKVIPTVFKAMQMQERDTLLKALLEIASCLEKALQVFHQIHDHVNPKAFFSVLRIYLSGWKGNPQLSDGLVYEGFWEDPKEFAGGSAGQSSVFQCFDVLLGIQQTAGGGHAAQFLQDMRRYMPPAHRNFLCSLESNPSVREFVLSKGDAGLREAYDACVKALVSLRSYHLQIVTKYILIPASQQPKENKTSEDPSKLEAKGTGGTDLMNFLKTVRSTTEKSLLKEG

The first assay concerns the target T1, IDO1 (Homo sapiens, UniProt P14902).
T1 construct: HeLa cells were treated with a test compound in the presence of IFNγ, which induces IDO1 expression; host or cells: H1-HeLa cells, IDO1 induced with IFNγ
The assay is described as follows: Cell-based (HeLa) assay for measurement of IDO1 inhibition (kynurenine levels in supernatant after IFNγ induction). As to conditions: HeLa cells, IFNγ-induced IDO1, kynurenine in supernatant after 48 hour incubation; geometric mean of a minimum of four determinations. The procedure, abridged: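 HeLa cells, 1,250 per well, treated with compound (0.5% DMSO final) plus IFNγ to induce IDO1, for 48 h. Supernatant kynurenine measured by TCA hydrolysis at 60 °C, then p-dimethylaminobenzaldehyde, absorbance 480 nm. EC50 from a four-parameter fit normalized to −/+IFNγ controls; geometric mean of at least four runs.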
The compound `O/N=C(\Nc1ccc(F)c(Cl)c1)c1ccnc2nc(CN3CCCCC3)[nH]c12` [Example 140, N-(3-Chloro-4-fluorophenyl)-N′-hydroxy-2-(piperidin-1-ylmethyl)-1H-imidazo[4,5-b]pyridine-7-carboximidamide] had an EC50 of 1610 nM.

The compound `CNc1nc2c(F)c(F)cc(/C(=N/O)Nc3ccc(F)c(Cl)c3)c2[nH]1` [Example 38, N-(3-Chloro-4-fluorophenyl)-4,5-difluoro-N′-hydroxy-2-(methylamino)-1H-benzo[d]imidazole-7-carboximidamide] had an EC50 of 607 nM.

Regarding `NCc1nc2c(F)ccc(/C(=N/O)Nc3ccc(F)c(Cl)c3)c2[nH]1` [Example 291, 2-(aminomethyl)-N-(3-chloro-4-fluorophenyl)-4-fluoro-N′-hydroxy-1H-benzo[d]imidazole-7-carboximidamide], the midpoint of the response, the EC50, lay at 2650 nM.

On to `NS(=O)(=O)CCNc1nc2c(F)c(F)cc(/C(=N/O)Nc3ccc(F)c(Cl)c3)c2[nH]1` [Example 298, N-(3-chloro-4-fluorophenyl)-4,5-difluoro-N′-hydroxy-2-((2-sulfamoylethyl)amino)-1H-benzo[d]imidazole-7-carboximidamide], for which the EC50 is 9560 nM.

Turning to `O/N=C(\Nc1cc(Cl)ccc1Cl)c1ccnc2nc[nH]c12` [Example 76, N-(2,5-Dichlorophenyl)-N′-hydroxy-1H-imidazo[4,5-b]pyridine-7-carboximidamide], the EC50 was 769 nM.

`CC(C)CNCCc1nc2nccc(/C(=N/O)Nc3ccc(F)c(Cl)c3)c2[nH]1` [Example 206, N-(3-chloro-4-fluorophenyl)-N′-hydroxy-2-(2-(isobutylamino)ethyl)-3H-imidazo[4,5-b]pyridine-7-carboximidamide] registered an EC50 of 2300 nM.

Take `Nc1nc2c(F)c(F)cc(/C(=N/O)Nc3ccc(F)c(Cl)c3)c2[nH]1` [Example 13, 2-Amino-N-(3-chloro-4-fluorophenyl)-4,5-difluoro-N′-hydroxy-1H-benzo[d]imidazole-7-carboximidamide]: the midpoint of the response, the EC50, lay at 2740 nM.

For the compound `O/N=C(\Nc1ccc(F)c(Cl)c1)c1ccnc2nc(CNCC3CCCCO3)[nH]c12` (stereo not shown) [Example 127, N-(3-Chloro-4-fluorophenyl)-N′-hydroxy-2-((((tetrahydro-2H-pyran-2-yl)methyl)amino)methyl)-1H-imidazo[4,5-b]pyridine-7-carboximidamide], the half-maximal effective concentration (EC50) was 2360 nM.

The same assay, now with this note: HeLa cells, IFNγ-induced IDO1, kynurenine in supernatant, 48 hour incubation; geometric mean of a minimum of four determinations.
The compound `CC(CNc1nc2c(F)c(F)cc(/C(=N/O)Nc3ccc(F)c(Cl)c3)c2[nH]1)CN(C)C` (stereo not shown) [Example 352, N-(3-chloro-4-fluorophenyl)-2-((3-(dimethylamino)-2-methylpropyl)amino)-4,5-difluoro-N′-hydroxy-1H-benzo[d]imidazole-7-carboximidamide] yielded an EC50 of 437 nM.

As for `O/N=C(\Nc1ccc(F)c(Cl)c1)c1ccnc2nc(CC3CCCCN3)[nH]c12` (stereo not shown) [Example 325, N-(3-chloro-4-fluorophenyl)-N′-hydroxy-2-(piperidin-2-ylmethyl)-1H-imidazo[4,5-b]pyridine-7-carboximidamide], the concentration giving a half-maximal response (EC50) is more than 10000 nM.

Regarding `CN(C)CCNc1nc2c(F)ccc(/C(=N/O)Nc3cccc(Cl)c3)c2[nH]1` [Example 384, N-(3-chlorophenyl)-2-((2-(dimethylamino)ethyl)amino)-4-fluoro-N′-hydroxy-1H-benzo[d]imidazole-7-carboximidamide], the response was half-maximal at 290 nM (EC50).

For `Cn1ccnc1CNc1nc2c(F)c(F)cc(/C(=N/O)Nc3ccc(F)c(Cl)c3)c2[nH]1` [Example 349, N-(3-chloro-4-fluorophenyl)-4,5-difluoro-N′-hydroxy-2-(((1-methyl-1H-imidazol-2-yl)methyl)amino)-1H-benzo[d]imidazole-7-carboximidamide], the EC50 is 2540 nM.

The compound `CN(C)C1CCCC1Nc1nc2c(F)c(F)cc(/C(=N/O)Nc3ccc(F)c(Cl)c3)c2[nH]1` (stereo not shown) [Example 461, N-(3-chloro-4-fluorophenyl)-2-((2-(dimethylamino)cyclopentyl)amino)-4,5-difluoro-N′-hydroxy-1H-benzo[d]imidazole-7-carboximidamide] had an EC50 of 472 nM.
